Assay [1] concerns kk mice (insulin-resisting model: obesity and hyperglycemia). In words: Hypoglycemic test in kk mice (insulin sensitivity potentiating action). The class given is in vivo. Particulars: oral administration of 10 mg/kg once daily for four days; blood sugar 15 to 18 hours after final administration vs level prior to administration; male kk mice, n=6; p<0.01. The method, then: 1. Hypoglycemic test in kk mice (insulin-resisting model: obesity and hyperglycemia) [insulin sensitivity potentiating action]:
Blood sugar levels under feeding were measured for male kk mice (sugar blood level being 200 mg/dl or more) and they were randomly divided into several groups. The drug to be tested was compulsorily administered per os once daily for four days and the blood sugar level after 15 to 18 hours from the final administration was compared with the level prior to the administration (n=6), whereupon a hypoglycemic rate (%) was calculated. Blood was collected from tail vein of the mouse using a glass capillary (previously treated with heparin), protein was removed therefrom and the amount of glucose (mg/dl) in the supernatant liquid was calorimetrically determined by a glucose oxidase method to obtain the blood sugar level.

Assay [2] relates to normal rats (male rats of SD-strain). Put plainly: Sugar tolerance test in normal rats (OGTT; insulin secretion promoting action). The class given is in vivo. The following applies: 10 mg/kg orally 30 minutes before glucose 2 g/kg per os; fasted male SD rats, n=4. The method, then:
2. Sugar tolerance test in normal rats [insulin secretion promoting action]:
Male rats of SD-strain (seven weeks age) were fasted for one night and day, randomly divided into several groups and subjected to an oral glucose tolerance test (OGTT) (n=4). The compound to be tested was orally administered at 30 minutes before administration of glucose (2 g/kg per os). Blood was collected by a heparin-treated glass syringe from abdominal artery of the rat under anesthetization with 65 mg/kg of pentbarbital, protein was removed therefrom and the amount of glucose (mg/dl) in the supernatant liquid was calorimetrically determined by a glucose oxidase method to obtain the blood sugar level. Insulin level in blood was determined by measuring the amount of insulin (ng/ml) in plasma by means of a radio-immunoassay (RIA). The result was that, when 10 mg/kg of the compound of Example 4 was administered, insulin secretion increased to an extent of three-fold in terms of AUC ratio and blood sugar level decreased to 90% as compared with that prior to the administration.

Structures can show the parent of a compound that is named as a salt.

In the case of `O=C(Cc1csc(NCc2ccccc2)n1)Nc1ccc(CCNC[C@H](O)COc2ccccc2)cc1` [Example 1, (S)-2-(2-benzylamino-4-thiazolyl)-4'-[2-[(2-hydroxy-3-phenoxypropyl)amino]ethyl]acetanilide], the hypoglycemic rate in assay [1] worked out at 47%. Consider `O=C(Cc1csc(Nc2ccccc2)n1)Nc1ccc(CCNC[C@H](O)COc2ccccc2)cc1` [Example 4, (S)-2-(2-phenylaminothiazol-4-yl)-4'-[2-[(2-hydroxy-3-phenoxyethyl)amino]ethyl]acetanilide dihydrochloride], for which the hypoglycemic rate in assay [1] was 56%. Moreover, in assay [2], the “blood sugar level decreased to, as compared with that prior to the administration” value is on record as 90% and the “insulin secretion increase in terms of AUC ratio (plasma insulin, RIA)” value is “three-fold”.

On to `CC(Cc1ccc(NC(=O)Cc2csc(Nc3ccccc3)n2)cc1)NC[C@H](O)COc1ccccc1` (stereo partly drawn) [Example 2-c, (S)-2-(2-anilino-4-thiazol-4-yl)-4'-{2-[(-2-hydroxy-3-phenoxypropyl)amino]propyl}acetanilide], for which, in assay [1], the hypoglycemic rate stood at 50%.

Take `O=C(Cc1csc(Nc2cccc(F)c2)n1)Nc1ccc(CCNC[C@H](O)COc2ccccc2)cc1` [Example 2-b, (S)-2-[2-(3-fluoroanilino)-4-thiazol-4-yl)-4'-[2-[(2-hydroxy-3-phenoxypropyl)amino]ethyl]acetanilide]: the hypoglycemic rate in assay [1] was 52%.
